# Source: the supplement of paper PMC10307832
# Tests used:
# Test in all cases: relative viability (nuclei count vs DMSO), 5 days (fraction); higher = more cells survive
# LCLC-103H = system: LCLC-103H
# Procedure, shortened: (§1)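 Relative viability was taken as the ratio of nuclei in treated wells to nuclei in vehicle wells. Lung cancer cell lines in 1536-well plates received compounds by pin tool one day after seeding, either one drug alone or a fixed anchor-drug dose plus five library-drug doses (not always all listed) in √10 steps. Nuclei were counted on 4× images after 5 days of treatment, and values are medians of duplicate plates.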
# LXF-289 = system: LXF-289
# Procedure, shortened: as §1
# NCI-H1355 = system: NCI-H1355
# Procedure, shortened: as §1
# NCI-H1651 = system: NCI-H1651
# Procedure, shortened: as §1
# NCI-H1755 = system: NCI-H1755
# Procedure, shortened: as §1
# NCI-H1915 = system: NCI-H1915
# Procedure, shortened: as §1
# NCI-H2170 = system: NCI-H2170
# Procedure, shortened: as §1
# NCI-H2347 = system: NCI-H2347
# Procedure, shortened: as §1
# NCI-H3122 = system: NCI-H3122
# Procedure, shortened: as §1
# NCI-H322M = system: NCI-H322M
# Procedure, shortened: as §1
# NCI-H441 = system: NCI-H441
# Procedure, shortened: as §1
# NCI-H460 = system: NCI-H460
# Procedure, shortened: as §1
# NCI-H520 = system: NCI-H520
# Procedure, shortened: as §1
# NCI-H596 = system: NCI-H596
# Procedure, shortened: as §1
# NCI-H650 = system: NCI-H650
# Procedure, shortened: as §1
# NCI-H661 = system: NCI-H661
# Procedure, shortened: as §1
# NCI-H727 = system: NCI-H727
# Procedure, shortened: as §1
# PC-14 = system: PC-14
# Procedure, shortened: as §1
# RERF-LC-KJ = system: RERF-LC-KJ
# Procedure, shortened: as §1
# SK-MES-1 = system: SK-MES-1
# Procedure, shortened: as §1
# SW 900 = system: SW 900
# Procedure, shortened: as §1
smiles,measurement,setting,value
O=C(O)c1ccc(-c2c[nH]c3ncc(-c4ccccc4)cc23)cc1C1CCCC1 + Cc1cc(Nc2cc(N3CCN(C)CC3)nc(Sc3ccc(NC(=O)C4CC4)cc3)n2)n[nH]1 [Tozasertib] (partner 0.1 µM),relative viability,LCLC-103H; first compound 0.04 µM,0.538
same,relative viability,LCLC-103H; first compound 0.1265 µM,0.552
same,relative viability,LCLC-103H; first compound 0.4 µM,0.4
same,relative viability,LCLC-103H; first compound 1.265 µM,0.392
same,relative viability,LXF-289; first compound 0.04 µM,0.229
same,relative viability,LXF-289; first compound 0.1265 µM,0.187
same,relative viability,LXF-289; first compound 0.4 µM,0.126
same,relative viability,LXF-289; first compound 1.265 µM,0.143
same,relative viability,NCI-H1355; first compound 0.04 µM,0.56
same,relative viability,NCI-H1355; first compound 0.1265 µM,0.632
same,relative viability,NCI-H1355; first compound 0.4 µM,0.522
same,relative viability,NCI-H1355; first compound 1.265 µM,0.281
same,relative viability,NCI-H1651; first compound 0.04 µM,0.689
same,relative viability,NCI-H1651; first compound 0.1265 µM,0.708
same,relative viability,NCI-H1651; first compound 0.4 µM,0.559
same,relative viability,NCI-H1651; first compound 1.265 µM,0.481
same,relative viability,NCI-H1755; first compound 0.04 µM,0.609
same,relative viability,NCI-H1755; first compound 0.1265 µM,0.628
same,relative viability,NCI-H1755; first compound 0.4 µM,0.514
same,relative viability,NCI-H1755; first compound 1.265 µM,0.509
same,relative viability,NCI-H1915; first compound 0.04 µM,0.445
same,relative viability,NCI-H1915; first compound 0.1265 µM,0.427
same,relative viability,NCI-H1915; first compound 0.4 µM,0.364
same,relative viability,NCI-H1915; first compound 1.265 µM,0.275
same,relative viability,NCI-H2170; first compound 0.04 µM,0.721
same,relative viability,NCI-H2170; first compound 0.1265 µM,0.726
same,relative viability,NCI-H2170; first compound 0.4 µM,0.679
same,relative viability,NCI-H2170; first compound 1.265 µM,0.612
same,relative viability,NCI-H2347; first compound 0.04 µM,0.606
same,relative viability,NCI-H2347; first compound 0.1265 µM,0.643
same,relative viability,NCI-H2347; first compound 0.4 µM,0.522
same,relative viability,NCI-H2347; first compound 1.265 µM,0.5
same,relative viability,NCI-H3122; first compound 0.04 µM,0.568
same,relative viability,NCI-H3122; first compound 0.1265 µM,0.45
same,relative viability,NCI-H3122; first compound 0.4 µM,0.407
same,relative viability,NCI-H3122; first compound 1.265 µM,0.326
same,relative viability,NCI-H322M; first compound 0.04 µM,0.472
same,relative viability,NCI-H322M; first compound 0.1265 µM,0.521
same,relative viability,NCI-H322M; first compound 0.4 µM,0.452
same,relative viability,NCI-H322M; first compound 1.265 µM,0.437
same,relative viability,NCI-H441; first compound 0.04 µM,0.71
same,relative viability,NCI-H441; first compound 0.1265 µM,0.638
same,relative viability,NCI-H441; first compound 0.4 µM,0.548
same,relative viability,NCI-H441; first compound 1.265 µM,0.325
same,relative viability,NCI-H460; first compound 0.04 µM,0.413
same,relative viability,NCI-H460; first compound 0.1265 µM,0.384
same,relative viability,NCI-H460; first compound 0.4 µM,0.491
same,relative viability,NCI-H460; first compound 1.265 µM,0.306
same,relative viability,NCI-H520; first compound 0.04 µM,0.504
same,relative viability,NCI-H520; first compound 0.1265 µM,0.408
same,relative viability,NCI-H520; first compound 0.4 µM,0.384
same,relative viability,NCI-H520; first compound 1.265 µM,0.483
same,relative viability,NCI-H596; first compound 0.04 µM,0.863
same,relative viability,NCI-H596; first compound 0.1265 µM,0.802
same,relative viability,NCI-H596; first compound 0.4 µM,0.851
same,relative viability,NCI-H596; first compound 1.265 µM,0.93
same,relative viability,NCI-H650; first compound 0.04 µM,0.706
same,relative viability,NCI-H650; first compound 0.1265 µM,0.691
same,relative viability,NCI-H650; first compound 0.4 µM,0.641
same,relative viability,NCI-H650; first compound 1.265 µM,0.351
same,relative viability,NCI-H661; first compound 0.04 µM,0.367
same,relative viability,NCI-H661; first compound 0.1265 µM,0.36
same,relative viability,NCI-H661; first compound 0.4 µM,0.353
same,relative viability,NCI-H661; first compound 1.265 µM,0.34
same,relative viability,NCI-H727; first compound 0.04 µM,0.67
same,relative viability,NCI-H727; first compound 0.1265 µM,0.533
same,relative viability,NCI-H727; first compound 0.4 µM,0.407
same,relative viability,NCI-H727; first compound 1.265 µM,0.578
same,relative viability,PC-14; first compound 0.04 µM,0.599
same,relative viability,PC-14; first compound 0.1265 µM,0.638
same,relative viability,PC-14; first compound 0.4 µM,0.484
same,relative viability,PC-14; first compound 1.265 µM,0.508
same,relative viability,RERF-LC-KJ; first compound 0.04 µM,0.531
same,relative viability,RERF-LC-KJ; first compound 0.1265 µM,0.422
same,relative viability,RERF-LC-KJ; first compound 0.4 µM,0.407
same,relative viability,RERF-LC-KJ; first compound 1.265 µM,0.275
same,relative viability,SK-MES-1; first compound 0.04 µM,0.93
same,relative viability,SK-MES-1; first compound 0.1265 µM,0.973
same,relative viability,SK-MES-1; first compound 0.4 µM,0.748
same,relative viability,SK-MES-1; first compound 1.265 µM,0.396
same,relative viability,SW 900; first compound 0.04 µM,0.638
same,relative viability,SW 900; first compound 0.1265 µM,0.585
same,relative viability,SW 900; first compound 0.4 µM,0.526
same,relative viability,SW 900; first compound 1.265 µM,0.311
